Values quoted from earlier work in US9314021B2, “Formulations containing insect repellent compounds” (E I DU PONT DE NEMOURS AND COMPANY, priority 2004, dated 2016).

Test system: ant species Monomorium destructor
Settings: pure undiluted compound; after 25 seconds of exposure; during feeding

CC1COC(=O)C2C(C)CCC12 (stereo not shown) [dihydronepetalactone]
ants ceased to feed: 50-60%
